Assay results taken from patent US10770169B2, “Method of providing a treatment to a subject based on a dynamic pathway map” (THE REGENTS OF THE UNIVERSITY OF CALIFORNIA, priority 2010, dated 2020).
Like-named read-outs stand apart in the source and are kept apart here.

Test system: panel of 55 breast cancer cell lines
Experiment: Cell growth inhibition assay (Cell Titer Glo, 72 h, 9 doses; GI50, TGI, LC50)
Assay type: cell-based, human
Details: Homo sapiens, read-out: GI50 (converted)

In the case of `CO[C@H]1C[C@@H]2CC[C@@H](C)[C@@](O)(O2)C(=O)C(=O)N2CCCC[C@H]2C(=O)O[C@H]([C@H](C)C[C@@H]2CC[C@@H](O)[C@H](OC)C2)CC(=O)[C@H](C)/C=C(\C)[C@@H](O)[C@@H](OC)C(=O)[C@H](C)C[C@H](C)/C=C/C=C/C=C/1C` [Rapamycin], the GI50 (AU565, AU565 cell line, censored GI50 values) is reported as 31.6 nM, the GI50 (AU565, cell line AU565) is reported as 31.6 nM and the GI50 (BT-20, BT20 cell line, censored GI50 values) is reported as 13.5 nM. The GI50 (BT-20, cell line BT20) was 13.5 nM, the GI50 (BT-474, BT474 cell line, censored GI50 values) was 15.1 nM and the GI50 (BT-474, cell line BT474) was 15.1 nM. For the same compound, the GI50 (BT-483, BT483 cell line, censored GI50 values) was 1.66 nM, the GI50 (BT-483, cell line BT483) was 1.66 nM and the GI50 (BT-549, BT549 cell line, censored GI50 values) was 33100 nM. For the same compound, the GI50 (BT-549, cell line BT549) was 33100 nM, the GI50 (CAMA-1, CAMA1 cell line, censored GI50 values) was 15.1 nM and the GI50 (CAMA-1, cell line CAMA1) was 15.1 nM. The GI50 (HCC38, HCC38 cell line, censored GI50 values) was 33.9 nM, the GI50 (HCC38, cell line HCC38) was 33.9 nM and the GI50 (HCC70, HCC70 cell line, censored GI50 values) was 120 nM. It also gave a GI50 (HCC70, cell line HCC70) of 120 nM, a GI50 (HCC202, HCC202 cell line, censored GI50 values) of 5.01 nM and a GI50 (HCC202, cell line HCC202) of 5.01 nM. The GI50 (HCC1187, HCC1187 cell line, censored GI50 values) was 32.4 nM, the GI50 (HCC1187, cell line HCC1187) was 32.4 nM and the GI50 (HCC1419, HCC1419 cell line, censored GI50 values) was 4.37 nM. For the same compound, the GI50 (HCC1419, cell line HCC1419) was 4.37 nM, the GI50 (HCC1428, HCC1428 cell line, censored GI50 values) was 51.3 nM and the GI50 (HCC1428, cell line HCC1428) was 51.3 nM. The GI50 (HCC1500, HCC1500 cell line, censored GI50 values) was 93300 nM, the GI50 (HCC1500, cell line HCC1500) was 93300 nM and the GI50 (HCC1806, HCC1806 cell line, censored GI50 values) was 66100 nM. It also gave a GI50 (HCC1806, cell line HCC1806) of 66100 nM, a GI50 (HCC1937, HCC1937 cell line, censored GI50 values) of 1230 nM and a GI50 (HCC1937, cell line HCC1937) of 1230 nM. The GI50 (HCC1954, HCC1954 cell line, censored GI50 values) was 3.55 nM, the GI50 (HCC1954, cell line HCC1954) was 3.55 nM and the GI50 (HCC2185 cell line, censored GI50 values) was 1.62 nM. It also gave a GI50 (HCC3153 cell line, censored GI50 values) of 5620 nM, a GI50 (MCF7, MCF7 cell line, censored GI50 values) of 145 nM and a GI50 (MCF7, cell line MCF7) of 145 nM. It also gave a GI50 (MDA-MB-134-VI, MDAMB134VI cell line, censored GI50 values) of 6.76 nM, a GI50 (MDA-MB-157, cell line MDAMB157) of 166000 nM and a GI50 (MDA-MB-175-VII, MDAMB175VII cell line, censored GI50 values) of 3.72 nM. It also gave a GI50 (MDA-MB-231, MDAMB231 cell line, censored GI50 values) of 3550 nM, a GI50 (MDA-MB-231, cell line MDAMB231) of 3550 nM and a GI50 (MDA-MB-361, MDAMB361 cell line, censored GI50 values) of 741 nM. The GI50 (MDA-MB-361, cell line MDAMB361) was 741 nM, the GI50 (MDA-MB-415, MDAMB415 cell line, censored GI50 values) was 2.09 nM and the GI50 (MDA-MB-415, cell line MDAMB415) was 2.09 nM. The GI50 (MDA-MB-436, cell line MDAMB436) was 166000 nM, the GI50 (MDA-MB-468, MDAMB468 cell line, censored GI50 values) was 2820 nM and the GI50 (MDA-MB-468, cell line MDAMB468) was 2820 nM. It also gave a GI50 (SK-BR-3, SKBR3 cell line, censored GI50 values) of 60.3 nM, a GI50 (SK-BR-3, cell line SKBR3) of 60.3 nM and a GI50 (SUM44PE cell line, censored GI50 values) of 0.55 nM. It also gave a GI50 (SUM52PE, SUM52PE cell line, censored GI50 values) of 3.02 nM, a GI50 (SUM52PE, cell line SUM52PE) of 3.02 nM and a GI50 (SUM149PT, SUM149PT cell line, censored GI50 values) of 9330 nM. The GI50 (SUM149PT, cell line SUM149PT) was 9330 nM, the GI50 (SUM225CWN, SUM225CWN cell line, censored GI50 values) was 16.6 nM and the GI50 (SUM225CWN, cell line SUM225CWN) was 16.6 nM. The GI50 (SUM1315MO2, SUM1315MO2 cell line, censored GI50 values) was 3310 nM, the GI50 (SUM-159-PT, SUM159PT cell line, censored GI50 values) was 724 nM and the GI50 (SUM-159-PT, cell line SUM159PT) was 724 nM. It also gave a GI50 (T47D, T47D cell line, censored GI50 values) of 490 nM, a GI50 (T47D, cell line T47D) of 490 nM and a GI50 (UACC-812, UACC812 cell line, censored GI50 values) of 46.8 nM. It also gave a GI50 (UACC-812, cell line UACC812) of 46.8 nM, a GI50 (UACC-893, cell line UACC893) of 166000 nM and a GI50 (cell line HCC2185) of 1.62 nM. It also gave a GI50 (cell line HCC3153) of 5620 nM, a GI50 (cell line MDAMB134V) of 6.76 nM and a GI50 (cell line MDAMB175V) of 3.72 nM. For the same compound, the GI50 (cell line SUM44PE) was 0.55 nM and the GI50 (cell line SUM1315MO) was 3310 nM.
